Assay [1] deals with T1, human JAK1 (Homo sapiens, UniProt P23458).
T1 construct: catalytic domain, amino acids 866-1154; catalog number PV4774; purchased Invitrogen PV4774
Put plainly: JAK1 inhibition assay (polyGT substrate / Ulight-JAK1 peptide). It is filed as biochemical. Particulars: recombinant human JAK1 catalytic domain; polyGT or Ulight-JAK1 peptide assay. The method, boiled down:
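Two formats. PolyGT radiometric: 45 min at 30 °C, stopped with phosphoric acid, counted as cpm. Ulight-JAK1 peptide: 60 min at room temperature, stopped with Eu-anti-phosphotyrosine/EDTA, read as RFU. Percent inhibition normalised to vehicle and 10 μM staurosporine.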

Assay [2] deals with T2, human JAK3 (Homo sapiens, UniProt P52333).
T2 construct: catalytic domain (amino acids 781-1124; catalog number PV3855); purchased Invitrogen PV3855
T2 sequence (P52333 781-1124): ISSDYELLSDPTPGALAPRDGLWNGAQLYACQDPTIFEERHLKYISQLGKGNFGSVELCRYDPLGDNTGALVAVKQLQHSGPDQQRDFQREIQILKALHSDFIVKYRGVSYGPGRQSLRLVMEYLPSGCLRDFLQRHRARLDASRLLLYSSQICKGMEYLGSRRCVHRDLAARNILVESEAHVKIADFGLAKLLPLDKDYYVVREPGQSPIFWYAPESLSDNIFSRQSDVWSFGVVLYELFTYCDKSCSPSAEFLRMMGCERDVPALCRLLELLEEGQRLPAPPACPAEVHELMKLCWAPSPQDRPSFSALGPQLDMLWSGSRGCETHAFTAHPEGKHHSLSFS
Nature of the assay: JAK3 inhibition assay. It is filed as biochemical. The note with it: recombinant human JAK3 catalytic domain; polyGT substrate. Put shortly:
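Radiometric kinase assay: 0.5 ng JAK3 with 2.5 μg polyGT in Tris pH 7.5/MgCl2 buffer, 1 μM ATP plus 0.25 μCi 33P-γ-ATP, 1% DMSO, 45 min at 30 °C, stopped with phosphoric acid.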

Assay [3] has as its system pSTAT1(2)-luciferase reporter in HeLa cells triggered with human OSM. Nature of the assay: JAK-STAT signalling assay. It is filed as cell-based. Particulars: read-out: JAK-STAT IC50. The method, boiled down:
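HeLa cells transiently co-transfected with pSTAT1(2)-luciferase and LacZ control reporter, preincubated with compound 60 min, then stimulated with human OSM (33 ng/mL final) overnight at 37 °C. Luciferase read by luminescence; percent inhibition from vehicle and no-trigger controls, EC50 from dose-response.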

Where [4] appears, read: Homo sapiens, HeLa, HeLa cells, pSTAT1(2)-luciferase reporter, human OSM 33 ng/mL.
[5] abbreviates: HeLa cells, pSTAT1(2)-luciferase reporter, human OSM 33 ng/mL.

Like-named read-outs stand apart in the source and are kept apart here.

T1 sequence (P23458 866-1154): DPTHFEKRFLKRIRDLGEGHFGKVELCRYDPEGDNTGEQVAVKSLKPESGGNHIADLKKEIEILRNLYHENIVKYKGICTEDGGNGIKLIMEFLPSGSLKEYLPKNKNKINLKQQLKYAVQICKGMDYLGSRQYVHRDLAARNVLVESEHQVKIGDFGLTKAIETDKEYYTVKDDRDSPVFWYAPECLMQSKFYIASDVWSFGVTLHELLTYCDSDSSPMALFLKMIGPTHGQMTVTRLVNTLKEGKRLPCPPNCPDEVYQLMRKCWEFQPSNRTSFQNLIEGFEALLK

For the compound `CCc1cn(CCC#N)nc1N(C)c1cc2c(cn1)ncn2C` [Compound 316, 3-{4-Ethyl-3-[methyl-(1-methyl-1H-imidazo[4,5-c]pyridin-6-yl)-amino]-pyrazol-1-yl}-propionitrile], the 50% inhibitory concentration (IC50) in assay [1] was over 1000 nM; in assay [2], over 1000 nM; in assay [3] (Homo sapiens, HeLa), over 1000 nM.
`CCc1cc(CN(C)S(C)(=O)=O)c(F)cc1N(C)c1cc2c(cn1)ncn2C` [Compound 319, N-{5-Ethyl-2-fluoro-4-[methyl-(1-methyl-1H-imidazo[4,5-c]pyridin-6-yl)-amino]-benzyl}-N-methyl-methanesulfonamide]: the IC50 in assay [1] was in the range of 0.01 to 100 nM; in assay [2], 0.01 to 100 nM; in assay [3] (setting [4]), 501 to 1000 nM.
Take `CN(c1cc2c(cn1)ncn2C)c1ccc(CNC(=O)C(F)F)cc1F` [Compound 320]: the IC50 was 0.01 to 100 nM in assay [1], 501 to 1000 nM in assay [2] and over 1000 nM in assay [3] (setting [4]).
On to `CCc1cc(C#N)cc(F)c1N(C)c1cc2c(cn1)ncn2C` [Compound 322, 3-Ethyl-5-fluoro-4-[methyl-(1-methyl-M-imidazo[4,5-c]pyridin-6-yl)-amino]-benzonitrile], for which the IC50 in assay [1] is 0.01 to 100 nM; in assay [2] it was over 1000 nM; in assay [3] (setting [4]), over 1000 nM.
Take `CCc1cc(CNS(C)(=O)=O)cc(F)c1N(C)c1cc2c(cn1)ncn2C` [Compound 323, N-{3-Ethyl-5-fluoro-4-[methyl-(1-methyl-1H-imidazo[4,5-c]pyridin-6-yl)-amino]-benzyl}-methanesulfonamide]: the results for the 50% inhibitory concentration (IC50) in assay [1], in assay [2] and in assay [3] (setting [4]) were 0.01 to 100 nM, 0.01 to 100 nM and 1 to 500 nM, respectively.
With `CCc1cc(CNS(=O)(=O)C(F)F)cc(F)c1N(C)c1cc2c(cn1)ncn2C` [Compound 324, N-{3-Ethyl-5-fluoro-4-[methyl-(1-methyl-1H-imidazo[4,5-c]pyridin-6-yl)-amino]-benzyl}-C,C-difluoro-methanesulfonamide], the IC50 in assay [1] was in the range of 0.01 to 100 nM; in assay [2] it was 0.01 to 100 nM; in assay [3] (setting [4]), 1 to 500 nM.
Take `CCc1cc(CNS(C)(=O)=O)c(F)cc1N(C)c1cc2c(cn1)ncn2C` [Compound 325, N-{5-Ethyl-2-fluoro-4-[methyl-(1-methyl-1H-imidazo[4,5-c]pyridin-6-yl)-amino]-benzyl}-methanesulfonamide]: the IC50 in assay [1] lay in the range of 0.01 to 100 nM; in assay [2] it was 101 to 500 nM; in assay [3] (setting [4]), 1 to 500 nM.
In the case of `CCc1cc(CNC(=O)C(F)F)c(F)cc1N(C)c1cc2c(cn1)ncn2C` [Compound 326, N-{5-Ethyl-2-fluoro-4-[methyl-(1-methyl-M-imidazo[4,5-c]pyridin-6-yl)-amino]-benzyl}-2,2-difluoro-acetamide], the IC50 in assay [1] lay in the range of 0.01 to 100 nM; in assay [2], 101 to 500 nM; in assay [3] (setting [4]) it was 501 to 1000 nM.
Regarding `CCc1cc(CNS(=O)(=O)C(F)F)c(F)cc1N(C)c1cc2c(cn1)ncn2C` [Compound 327, N-{5-Ethyl-2-fluoro-4-[methyl-(1-methyl-M-imidazo[4,5-c]pyridin-6-yl)-amino]-benzyl}-C,C-difluoro-methanesulfonamide], the IC50 in assay [1] was in the range of 0.01 to 100 nM; in assay [2] it was 0.01 to 100 nM; in assay [3] (setting [4]), 1 to 500 nM.
For the compound `CCc1cc(C2CN(S(C)(=O)=O)C2)ncc1N(C)c1cc2c(cn1)ncn2C` [Compound 328, [4-Ethyl-6-(1-methanesulfonyl-azetidin-3-yl)-pyridin-3-yl]-methyl-(1-methyl-1H-imidazo[4,5-c]pyridin-6-yl)-amine], the IC50 was 0.01 to 100 nM in assay [1], over 1000 nM in assay [2] and over 1000 nM in assay [3] (setting [5]).
Regarding `CCc1cc(C2CN(S(=O)(=O)C(F)F)C2)ncc1N(C)c1cc2c(cn1)ncn2C` [Compound 329, {6-[1-(Difluoro-methanesulfonyl)-azetidin-3-yl]-4-ethyl-pyridin-3-yl}-methyl-(1-methyl-1H-imidazo[4,5-c]pyridin-6-yl)-amine], the IC50 is 0.01 to 100 nM in assay [1], over 1000 nM in assay [2] and 1 to 500 nM in assay [3] (setting [5]).
Turning to `CCc1cc(C2CN(S(=O)(=O)C(C)C)C2)ncc1N(C)c1cc2c(cn1)ncn2C` [Compound 330, {4-Ethyl-6-[1-(propane-2-sulfonyl)-azetidin-3-yl]-pyridin-3-yl}-methyl-(1-methyl-1H-imidazo[4,5-c]pyridin-6-yl)-amine], the IC50 in assay [1] is 0.01 to 100 nM; in assay [2], over 1000 nM; in assay [3] (setting [5]), over 1000 nM.
For the compound `CCc1cc(C2CN(CC#N)C2)ncc1N(C)c1cc2c(cn1)ncn2C` [Compound 331, (3-{4-Ethyl-5-[methyl-(1-methyl-1H-imidazo[4,5-c]pyridin-6-yl)-amino]-pyridin-2-yl}-azetidin-1-yl)-acetonitrile], the IC50 is 0.01 to 100 nM in assay [1], over 1000 nM in assay [2] and over 1000 nM in assay [3] (setting [5]).
On to `CCc1cc(C2CN(C(C)=O)C2)ncc1N(C)c1cc2c(cn1)ncn2C` [Compound 332, 1-(3-{4-Ethyl-5-[methyl-(1-methyl-1H-imidazo[4,5-c]pyridin-6-yl)-amino]-pyridin-2-yl}-azetidin-1-yl)-ethanone], for which the IC50 in assay [1] was 101 to 500 nM; in assay [2], over 1000 nM; in assay [3] (setting [5]) it was over 1000 nM.
With `CCc1cc(C2CN(C(=O)C(F)F)C2)ncc1N(C)c1cc2c(cn1)ncn2C` [Compound 333, 1-(3-{4-Ethyl-5-[methyl-(1-methyl-1H-imidazo[4,5-c]pyridin-6-yl)-amino]-pyridin-2-yl}-azetidin-1-yl)-2,2-difluoro-ethanone], the values for the IC50 in assay [1], in assay [2] and in assay [3] (setting [5]) were 0.01 to 100 nM, 501 to 1000 nM and over 1000 nM, respectively.
On the same counts, the results for `CCc1cc(C2CN(C(=O)C(F)(F)F)C2)ncc1N(C)c1cc2c(cn1)ncn2C` [Compound 334, 1-(3-{4-Ethyl-5-[methyl-(1-methyl-1H-imidazo[4,5-c]pyridin-6-yl)-amino]-pyridin-2-yl}-azetidin-1-yl)-2,2,2-trifluoro-ethanone] are 0.01 to 100 nM, 101 to 500 nM and over 1000 nM.
As for `CCc1cc(CNS(=O)(=O)C(F)F)ncc1N(C)c1cc2c(cn1)ncn2C` [Compound 343, N-{4-Ethyl-5-[methyl-(1-methyl-1H-imidazo[4,5-c]pyridin-6-yl)-amino]-pyridin-2-ylmethyl}-C,C-difluoro-methane sulfonamide], the IC50 in assay [1] was 0.01 to 100 nM; in assay [2], 101 to 500 nM; in assay [3] (setting [5]), 501 to 1000 nM.
Turning to `CCc1ccccc1N(CC(F)F)c1cc2c(cn1)ncn2C` [Compound 463, N-(2,2-difluoroethyl)-N-(2-ethylphenyl)-1-methyl-1H-imidazo[4,5-c]pyridin-6-amine], the IC50 in assay [1] was 0.01 to 100 nM; in assay [2] it was 101 to 500 nM; in assay [3] (setting [5]) it was over 1000 nM.

What is called IC50 is the point on the concentration scale where inhibition reaches its midpoint.
